Results as given in ChEMBL document CHEMBL1127269, “Synthesis and DNA binding properties of a series of N to C linked and imidazole containing analogues of distamycin” (Bioorg Med Chem Lett, 1994).

How the values were obtained:
Format in all cases: nucleic-acid assay
Nucleic Acid [1] = test: Tested for binding association constant against T4 coliphage DNA using ethidium bromide assay
Nucleic Acid [2] = test: Tested for binding association constant against calf thymus using ethidium bromide assay; conditions: Bos taurus
Nucleic Acid [3] = test: Tested for binding association constant against Poly (dG-dC) using ethidium bromide assay
Nucleic Acid [4] = test: Tested for binding association constant against Poly (dA.dT) using ethidium bromide assay
Nucleic Acid [5] = test: Tested for binding association constant against calf thymus DNA using ethidium bromide assay; conditions: Bos taurus

K app (Nucleic Acid [1]) [M⁻¹] | K app (Nucleic Acid [2]) [M⁻¹] | K app (Nucleic Acid [3]) [M⁻¹] | K app (Nucleic Acid [4]) [M⁻¹] | K app (Nucleic Acid [5]) [M⁻¹] | Compound
140000 | 150000 | 580000 | 12000 |  | CN(C)CCNC(=O)c1nc(NC(=O)CCNC(=O)c2nc(NC=O)cn2C)cn1C
1.9e+06 | 1.6e+06 | 5.2e+06 | 250000 |  | CN(C)CCNC(=O)c1nc(NC(=O)c2nc(NC(=O)CCNC(=O)c3nc(NC=O)cn3C)cn2C)cn1C
33000 | 10000 | 21000 | 10000 |  | CN(C)CCNC(=O)c1nc(NC(=O)CCCNC(=O)c2nc(NC=O)cn2C)cn1C
650000 |  | 200000 | 3.48e+07 | 770000 | Cn1cc(NC(=O)c2cc(NC(=O)c3cc(NC=O)cn3C)cn2C)cc1C(=O)NCCC(=N)N
140000 | 48000 | 92000 | 50000 |  | CN(C)CCNC(=O)c1nc(NC(=O)c2nc(NC(=O)CCCNC(=O)c3nc(NC=O)cn3C)cn2C)cn1C
